The values below are quoted from earlier work in patent US20100228037A1, “Process for Preparing Allylmercaptocaptopril (Cpssa) and Related Asymmetrical Disulfides” (Yeda Research And Development Co. Ltd. at the Weizmann …, priority 2006, published 2010).

Like-named read-outs stand apart in the source and are kept apart here.

Series [1] relates to rats.
The conditions of series [2]: blood or plasma of mammals.
The conditions of series [3]: in vitro, human blood.
For series [4] the following is noted: in vivo, rats.
[5] abbreviates: rats, immediately after administration.

Consider `C=CCSSC[C@H](C)C(=O)N1CCC[C@H]1C(=O)O` [CPSSA, allylmercaptocaptopril], for which the “antihypertensive properties compared with unmodified captopril” value in series [1] (rat, in vivo) was “improved antihypertensive properties”. Moreover, in series [1] (setting [5]), the blood pressure entry was “significantly decreased blood pressure”, the “serum level of insulin” value is listed as “to near normal levels” and the “serum level of triglycerides” value was “to near normal levels”. In series [2], the “stability in blood or plasma” value was “stable in blood or plasma of mammals”.

For the molecule `C=CCS[S+]([O-])CC=C` (stereo not shown) [allicin], the “disintegration in blood after administration” value in series [3] and in series [4] was “disintegrates in the blood a few minutes post its administration” throughout.
